Tests used:
[1] = tested on: secretion of interferon-beta from THP1 cells; test: IFN-β secretion in THP1 cell culture (5 h); assay type: cell-based; conditions: Homo sapiens, THP-1, 5 h, 30 uM cGAMP = 100%; for activation at 30 µM: compound at 30 μM, read-out: % Effect at 30 μM relative to 2′3′-cGAMP; for activation at 3 µM: compound at 3 uM, read-out: % Effect relative to 2′3′-cGAMP (@ 3 uM)
Procedure, shortened: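 IFN-β in supernatant measured by AlphaLISA after a 5 h, 37 °C incubation of THP1 cells with compound (10 concentrations, 30000 down to 1.5 nM, 0.3% DMSO) in low-serum RPMI. Values scaled between DMSO and 30 uM cGAMP controls; 4-parameter curve fit yields EC50.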

full-length WT STING = target: T1, full-length WT STING (Homo sapiens, UniProt Q86WV6, H232R); test: 3H-cGAMP filtration binding assay (WT STING); conditions: competition with tritiated cGAMP, WT STING membrane
T1 construct: AviTag (after gg linker) (C); HRV3C cleavage site (after gs linker) (C); HIS8 (C); made in house; host or cells: Trichoplusia ni (Hi-Five) insect cells infected with baculovirus (virus generated and amplified in Sf21 cells); used as a washed membrane preparation
T1 sequence (Q86WV6 with tags, fused parts or gaps H232R): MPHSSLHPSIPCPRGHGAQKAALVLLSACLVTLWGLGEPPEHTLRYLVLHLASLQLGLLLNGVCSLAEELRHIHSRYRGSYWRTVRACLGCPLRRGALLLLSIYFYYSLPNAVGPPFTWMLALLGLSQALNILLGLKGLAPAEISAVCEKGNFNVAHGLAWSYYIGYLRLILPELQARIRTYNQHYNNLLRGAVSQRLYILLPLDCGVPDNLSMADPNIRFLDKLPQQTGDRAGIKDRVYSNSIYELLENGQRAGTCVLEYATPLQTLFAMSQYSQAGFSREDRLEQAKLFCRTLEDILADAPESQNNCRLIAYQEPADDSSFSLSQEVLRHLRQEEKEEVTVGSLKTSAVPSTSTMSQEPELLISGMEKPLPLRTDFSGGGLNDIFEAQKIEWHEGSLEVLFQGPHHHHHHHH
Procedure, shortened: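 EC50 values come from 4-parameter fits of remaining filter-bound tritium versus log concentration (10-point, 1:3 dilution). Insect-cell membranes carrying full-length WT STING were incubated 60 min at RT with compound and tritiated cGAMP (16 nM working stock) before filtration.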

full-length HAQ STING = target: T2, full-length HAQ STING (Homo sapiens, UniProt Q86WV6, G230A/H232R/R293Q/R71H); test: 3H-cGAMP filtration binding assay (HAQ STING); conditions: competition with tritiated cGAMP, HAQ STING membrane
T2 construct: AviTag (after GG linker) (C); HRV3C cleavage site (after GS linker) (C); HIS8 (C); made in house; host or cells: Trichoplusia ni (Hi-Five) insect cells infected with baculovirus (virus generated and amplified in Sf21 cells); used as a washed membrane preparation
T2 sequence (Q86WV6 with tags, fused parts or gaps R71H/G230A/H232R/R293Q): as the sequence (Q86WV6 with tags, fused parts or gaps H232R) above, with R71H, G230A, R293Q counted along it
Procedure, shortened: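 Hi-Five (T. ni) membranes overexpressing the STING variant (2.2 ug/ml working) preincubated with compound 60 min at RT in PBS, then [3H]cGAMP (8 nM working stock) added for 60 min at RT. Bound radioactivity captured on GF/B filters and counted by scintillation; EC50 from 4-parameter fit of control-normalized activity.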

Row | SMILES | EC50 (full-length WT STING) [nM] | EC50 (full-length HAQ STING) [nM] | activation at 30 µM [1] [%] | activation at 3 µM [1] [%]
1 | COc1cc2sc(C(=O)C[C@H](C)C(=O)O)cc2cc1OCCCc1nc2cc(C(=O)CCC(=O)O)sc2cc1OC [Example 15, (S)-4-(5-(3-(2-(3-carboxypropanoyl)-6-methoxythieno [3,2-b]pyridin-5-yl)propoxy)-6-methoxybenzo[b]thiophen-2-yl)-2-methyl-4-oxobutanoic acid] | 615 | 107 | 114 | 
2 | COc1cc2cc(C(=O)C[C@H](C)C(=O)O)sc2cc1OCCCOc1ccc2cc(C(=O)CCC(=O)O)sc2c1 [Example 45, (S)-4-(6-(3-((2-(3-carboxypropanoyl)benzo[b]thiophen-6-yl)oxy)propoxy)-5-methoxybenzo[b]thiophen-2-yl)-2-methyl-4-oxobutanoic acid] | 14800 | 4330 | 8 | 
3 | COc1cc2cc(C(=O)C[C@H](C)C(=O)O)sc2cc1OCCCOc1cc2sc(C(=O)C[C@H](C)C(=O)O)cc2cc1OC [Example 47, (2S,2′S)-4,4′-((propane-1,3-diylbis(oxy))bis(5-methoxybenzo[b]thiophene-6,2-diyl))bis(2-methyl-4-oxobutanoic acid)] | 81 | 14 | 62 | 
4 | COc1cc2sc(C(=O)CCC(=O)O)cc2cc1CCCOc1cc2cc(C(=O)CCC(=O)O)sc2cc1OC [Example 44, 4-(5-(3-((2-(3-carboxypropanoyl)-6-methoxybenzo[b]thiophen-5-yl)oxy)propyl)-6-methoxybenzo[b]thiophen-2-yl)-4-oxobutanoic acid] | 64 | 14 | 108 | 
5 | COc1cc2sc(C(=O)C[C@H](C)C(=O)O)cc2cc1CCCOc1c(OC)cc2sc(C(=O)C[C@H](C)C(=O)O)cc2c1F [Example 37, (S)-4-(5-(3-((2-((S)-3-carboxybutanoyl)-4-fluoro-6-methoxybenzo[b]thiophen-5-yl)oxy)propyl)-6-methoxybenzo[b]thiophen-2-yl)-2-methyl-4-oxobutanoic acid] | 2 | 1 | 76 | 
6 | COc1cc2cc(C(=O)C[C@H](C)C(=O)O)sc2cc1OCCCOc1c(OC)cc2sc(C(=O)CCC(=O)O)cc2c1F [Example 73, (S)-4-(6-(3-((2-(3-carboxypropanoyl)-4-fluoro-6-methoxybenzo[b]thiophen-5-yl)oxy)propoxy)-5-methoxybenzo[b]thiophen-2-yl)-2-methyl-4-oxobutanoic acid] | 4 | 1 | 67 | 
7 | COc1cc2sc(C(=O)CCC(=O)O)cc2cc1CCCOc1nc2cc(C(=O)C[C@H](C)C(=O)O)sc2cc1OC [Example 3, (S)-4-(5-(3-(2-(3-carboxypropanoyl)-6-methoxybenzo[b]thiophen-5-yl)propoxy)-6-methoxythieno[3,2-b]pyridin-2-yl)-2-methyl-4-oxobutanoic acid] | 273 | 114 | 151 | 
8 | COc1cc(CCCc2cc3sc(C(=O)CCC(=O)O)cc3cc2OC)c2cc(C(=O)CCC(=O)O)sc2c1 [Example 26, 4-(4-(3-(2-(3-carboxypropanoyl)-5-methoxbenzo[b]thiophen-6-yl)propyl)-6-methoxybenzo[b]thiophen-2-yl)-4-oxobutanoic acid] | 19 | 9 | 129 | 
9 | COc1cc2sc(C(=O)CCC(=O)O)cc2cc1OCCCc1nc2cc(C(=O)CCC(=O)O)sc2cc1OC [Example 13, 4-(5-(3-((2-(3-carboxypropanoyl)-6-methoxybenzo[b]thiophen-5-yl)oxy)propyl)-6-methoxythieno[3,2-b]pyridin-2-yl)-4-oxobutanoic acid] | 625 | 158 | 67 | 
10 | COc1cc2sc(C(=O)CCC(=O)O)cc2cc1OCCOc1ccc2sc(C(=O)CCC(=O)O)cc2c1 [Example 11, 4-(5-(2-((2-(3-carboxypropanoyl)-6-methoxybenzo [b]thiophen-5-yl)oxy)ethoxy)benzo[b]thiophen-2-yl)-4-oxobutanoic acid] | 4560 | 1760 | 7 | 
11 | COc1cc2sc(C(=O)C[C@@H](C)C(=O)O)cc2cc1CCCOc1c(OC)cc2sc(C(=O)C[C@H](C)C(=O)O)cc2c1F [Example 91, (R)-4-(5-(3-((2-((S)-3-carboxybutanoyl)-4-fluoro-6-methoxybenzo[b]thiophen-5-yl)oxy)propyl)-6-methoxybenzo[b]thiophen-2-yl)-2-methyl-4-oxobutanoic acid] | 30 | 7 | 109 | 
12 | COc1cc2cc(C(=O)C[C@H](C)C(=O)O)sc2cc1OCCCOc1ccc2sc(C(=O)CCC(=O)O)cc2c1 [Example 46, (S)-4-(6-(3-((2-(3-carboxypropanoyl)benzo[b]thiophen-5-yl)oxy)propoxy)-5-methoxybenzo[b]thiophen-2-yl)-2-methyl-4-oxobutanoic acid] | 394 | 133 | 60 | 

Continued, in another order:

Row | EC50 (full-length WT STING) [nM] | EC50 (full-length HAQ STING) [nM] | SMILES | activation at 30 µM [1] [%] | activation at 3 µM [1] [%]
13 | 7 | 3 | COc1cc2sc(C(=O)C[C@H](C)C(=O)O)cc2cc1OCCCCOc1cc2cc(C(=O)C[C@H](C)C(=O)O)sc2cc1OC [Example 92, (2S,2′S)-4,4′-(5,5′-(butane-1,4-diylbis(oxy))bis(6-methoxybenzo[b]thiophene-5,2-diyl))bis(2-methyl-4-oxobutanoic acid)] | 62 | 
14 | 15100 | 454 | COc1cc2sc(C(=O)C[C@H](C)C(=O)O)cc2c(Cl)c1OCCCCOc1c(OC)cc2sc(C(=O)C[C@H](C)C(=O)O)cc2c1Cl [Example 172, (2S,2′S)-4,4′-(5,5′-(butane-1,4-diylbis(oxy))bis(4-chloro-6-methoxybenzo[b]thiophene-5,2-diyl))bis(2-methyl-4-oxobutanoic acid)] |  | 16
15 | 4 | 1 | COc1cc2sc(C(=O)C[C@H](C)C(=O)O)cc2cc1OCCCc1c(OC)cc2sc(C(=O)C[C@H](C)C(=O)O)cc2c1F [Example 162, (S)-4-(5-(3-(2-((S)-3-carboxybutanoyl)-4-fluoro-6-methoxybenzo[b]thiophen-5-yl)propoxy)-6-methoxybenzo[b]thiophen-2-yl)-2-methyl-4-oxobutanoic acid] | 98 | 
16 | 3 | 2 | COc1cc2sc(C(=O)CC(C)(C)C(=O)O)cc2c(F)c1OCCCOc1c(OC)cc2sc(C(=O)CC(C)(C)C(=O)O)cc2c1F [Example 165, 4,4′-((propane-1,3-diylbis(oxy))bis(4-fluoro-6-methoxybenzo[b]thiophene-5,2-diyl))bis(2,2-dimethyl-4-oxobutanoic acid)] | 21 | 
17 | 39 | 10 | COc1cc2sc(C(=O)C[C@H](C)C(=O)O)cc2cc1CCCOc1c(OC)cc2sc(C(=O)C[C@@H](C)C(=O)O)cc2c1F [Example 109, (S)-4-(5-(3-((2-((R)-3-carboxybutanoyl)-4-fluoro-6-methoxybenzo[b]thiophen-5-yl)oxy)propyl)-6-methoxybenzo[b]thiophen-2-yl)-2-methyl-4-oxobutanoic acid] | 96 | 
18 | 1 | 1 | COc1cc2sc(C(=O)C[C@H](C)C(=O)O)cc2c(F)c1CCCOc1c(OC)cc2sc(C(=O)C[C@H](C)C(=O)O)cc2c1F [Example 164, (S)-4-(5-(3-((2-((S)-3-carboxybutanoyl)-4-fluoro-6-methoxybenzo[b]thiophen-5-yl)oxy)propyl)-4-fluoro-6-methoxybenzo[b]thiophen-2-yl)-2-methyl-4-oxobutanoic acid] | 131 | 
19 | 213 | 15 | COc1cc2sc(C(=O)C[C@H](C)C(=O)O)cc2cc1OCCCCCOc1cc2cc(C(=O)C[C@H](C)C(=O)O)sc2cc1OC [Example 102, (2S,2′S)-4,4′-(5,5′-(pentane-1,5-diylbis(oxy))bis(6-methoxybenzo[b]thiophene-5,2-diyl))bis(2-methyl-4-oxobutanoic acid)] | 69 | 
20 | 2240 | 277 | COc1cc2sc(C(=O)C[C@H](C)C(=O)O)cc2cc1CCCOc1c(OC)cc2sc(CC[C@H](C)C(=O)O)cc2c1F [Example 100, (S)-4-(5-(3-((2-((S)-3-carboxybutyl)-4-fluoro-6-methoxybenzo[b]thiophen-5-yl)oxy)propyl)-6-methoxybenzo[b]thiophen-2-yl)-2-methyl-4-oxobutanoic acid] |  | 33
